Columns and labels:
[1] = system: Pkd1−/− mouse inner medullary collecting duct cells (mIMRFNPKD 5E4); assay: mPKD 3D cyst swelling assay (forskolin-induced); type: cell-based; details: after 72 hours of forskolin exposure
Method: Cell model and control compounds. mIMCD3 WT cells were obtained via ATCC and modified to create the mIMRFNPKD 5E4 cell line, which has a CRISPR-Cas mediated knockout for Pkd1 as described SLAS Discov. 2017 September; 22(8):974-984. doi: 10.1177/2472555217716056. Cells were cultured in DMEM/F12 (Sigma)+10% FBS (Sigma)+0.5% Pen/Strep (Gibco)+1% GluMax (Gibco). Control compounds used were forskolin (Calbiochem, 344282), Rapamycin (Selleckchem, S1039) and Staurosporin (Selleckchem, S1421).
The 3D mouse cyst swelling assay was performed with Pkd1^−/− mouse inner medullary collecting duct cells (mIMRFNPKD 5E4). The cyst swelling protocol that was used was described previously (SLAS Discov. 2017 September; 22(8):974-984. doi: 10.1177/2472555217716056), with further optimization.
3D culture and compound exposure. mIMRFNPKD 5E4 cells were mixed with Cyst-Gel (OcellO BV). 15 μL of cell-gel mix was pipetted to 384-well plates (Greiner μClear, Greiner Bio-One B.V.) using a CyBio Felix 96/60 robotic liquid dispenser (Analyik Jena AG). Gel-cell mix was plated at a final cell density of 2250 cells per well. After gel polymerization at 37° C. for 30 minutes, 33 μL culture medium was added to each well. Cells were grown in the gel for 96 hours, after which the cells were co-exposed with forskolin (Calbiochem, 344282) and one the following molecules: reference compound Rapamycin (SelleckChem, S1039), toxic control compound Staurosporin (SelleckChem, S1421) or test compounds.
Sample processing. After 72 hours, cultures were fixed with 4% Formaldehyde (Sigma Aldrich) and simultaneously permeabilized with 0.2% Triton-X100 (Sigma Aldrich) and stained with 0.25 μM rhodamine-phalloidin (Sigma Aldrich) and 0.1% Hoechst 33258 (Sigma Aldrich) in 1×PBS (Sigma Aldrich) for 2 days at 4° C., protected from light. After fixation and staining, plates were washed with 1×PBS, sealed with a Greiner SilverSeal (Greiner Bio-One B.V.) and stored at 4° C. prior to imaging.
Imaging and image analysis. Imaging was done using Molecular Devices ImageXpress Micro XLS (Molecular Devices) with a 4× NIKON objective. For each well around 35 images in the Z-direction were made for both channels, capturing the whole z-plane in each image. Image analysis was performed using Ominer™ software (OcellO BV). Cysts were segmented using detection of Hoechst-stained nuclei and Rhodamine-phalloidin-stained cellular f-actin. Cyst area was determined by calculating for the area in px of each object in every in-focus plain. This was averaged per well. (N represented is number of wells) Fraction of apoptotic nuclei as an indicator of toxicity was calculated as the amount of nuclei without actin signal relative to the total amount of nuclei, both as count-measurements. Statistics was done using KNIME Analytics Platform (Konstanz, Germany, http://www.knime.org/), graphs were prepared in GraphPad Prism 6 (GraphPad Software, La Jolla, Calif.).

[2] = system: Vitamin B12 deficiency (Cbl−/− diet) mouse model; assay: Vitamin B12 deficiency mouse model: bone marrow immunophenotyping (M1/M2 macrophages); type: in vivo, C57BL/6 mice; details: 50 mpk IP BID; for Ratio of M1/M2 macrophages in bone marrow: mice on the cbl−/− diet (untreated: M1/M2 ratio of 6); for Ratio of M1/M2 macrophages compared with mice on a control diet: mice on the cbl−/− diet
Method: A vitamin B12 deficiency mouse model was used following the methods described at Ghosh et al 2016.
Animal maintenance and feeding. Female weanling C57BL/6 mice (n=65) were obtained at 3 weeks of age from Shanghai Sippe-Bk Lab Animal Co., Ltd. The mice were housed in a SPF environment and maintained at 20° C.±6, under standard lighting conditions (12-h light/dark cycle). Animals were divided into 5 animals per cage during modelling, and 3 animals per cage during compound test. The 3-week old mice were fed ad libitum with either AIN-76A control diet (D10001i) designated as control diet group or the same diet deficient in vitamin B12 (D07012902) with pectin as the source of fiber (designated as Cbl−/− cobalamin deficient) referred to as B12R+ by Ghosh et al. (Research Diets Inc., New Brunswick, N.J., USA). Cobalamin-restricted diet with pectin (B12R+) contained 50 g pectin/kg diet, because it has been shown earlier that pectin binds the intrinsic factor in the intestine and makes vitamin B12 less bioavailable. The control diet contained 50 g cellulose/kg diet as the fiber source instead of pectin. The mice also had ad libitum access to deionized water. Food intake and body weights were recorded every week.
Compound treatment. After 6 weeks of feeding on either control or Cbl−/− diet, 9-week-old mice on Cbl−/− diet were randomly assigned into 5 groups with 3 mice per group per treatment. Mice in each group were IP treated with vehicle (1% HPBCD, Sigma, H107) or were dosed at 50 mpk with Compound 1 or Compound 410 BID. One group of mice were sacrificed at 24h after the first dose. 2nd group of mice were sacrificed at 72h after the first dose. 3rd group of mice were sacrificed after 168h (i.e 7 days) after the first dose. 4th group of mice were fasted for 12h before sacrificing after 72h of the first dose. 5th group of mice were first fasted for 12h before any vehicle or compound treatment and sacrificed after 72h after the first dose.
Tissue and sample collection. At above specified timepoints, mice were weighed and anesthetized with CO2 before sample collection. For blood collection, the chest was opened to expose the heart. Up to 300 μl blood was drawn from the left ventricle with 1 ml syringe rinsed with EDTA-Na and dispensed into a K3EDTA mini collect tube (Greiner Bio-One) for haematology analysis. Then a new syringe was used to draw remaining blood from heart as much as possible. Serum was isolated by centrifugation at 5000 rpm for 10 min, aliquoted and kept at −80° C. until further use. For tissue collection after blood was drawn, mice were perfused with ice cold saline from the left ventricle. Heart, liver, kidney, spleen, brain was weighed after isolation. Then left leg was kept in ice cold PBS and bone marrow was isolated for further immunophenotype analysis. […]

SMILES | % prevention of forskolin-induced cyst swelling ([1]; 10 uM) [%] | % prevention of forskolin-induced cyst swelling ([1]; 50 uM) [%] | Ratio of M1/M2 macrophages in bone marrow [2] | Ratio of M1/M2 macrophages compared with mice on a control diet [2]
CC(C)(CO)[C@@H](O)C(=O)NCCC(=O)NCCSC(=O)C1CCC(=O)N1 (stereo partly drawn) [Compound 1227, S-2-{3-[(R)-2,4-dihydroxy-3,3-dimethylbutyrylamino]propionylamino}ethyl 5-oxo-2-pyrrolidinecarbothioate] | ≥10 |  |  | 
COC(=O)CC(SCCNC(=O)CCNC(=O)[C@H](O)C(C)(C)COC(C)=O)C(=O)OC (stereo partly drawn) [Compound 149, 1,4-dimethyl 2-[(2-[3-[(2R)-4-(acetyloxy)-2-hydroxy-3,3-dimethylbutanamido]propanamido]ethyl)sulfanyl]butanedioate] |  | ≥10 |  | 
CC(C)(CO)[C@@H](O)C(=O)NCCC(=O)NCCSC(=O)CCC(=O)O [Compound 1, (R)-4-((2-(3-(2,4-dihydroxy-3,3-dimethylbutanamido)propanamido)ethyl)thio)-4-oxobutanoic acid] |  |  | 3.967 | statistically indistinguishable
C[C@H](CC(=O)SCCNC(=O)CCNC(=O)[C@H](O)C(C)(C)CO)OC(=O)CCC(=O)O [Compound 1243, 4-{[(2R)-4-[(2-{3-[(2R)-2,4-dihydroxy-3,3-dimethylbutanamido]propanamido}ethyl)sulfanyl]-4-oxobutan-2-yl]oxy}-4-oxobutanoic acid] |  | ≥10 |  | 
COC(=O)CC(C(C)=O)C(=O)SCCNC(=O)CCNC(=O)[C@H](O)C(C)(C)CO (some centres unmarked) [Compound 410] |  |  | 3.87 | statistically indistinguishable
CC(C)(CO)[C@@H](O)C(=O)NCCC(=O)NCCSC(=O)CCCO [Compound 1304, (2R)-2,4-dihydroxy-N-[2-([2-[(4-hydroxybutanoyl)sulfanyl]ethyl]carbamoyl)ethyl]-3,3-dimethylbutanamide] | ≥10 |  |  | 

From patent US20230107216A1, “PANTETHEINE DERIVATIVES AND USES THEREOF” (Comet Therapeutics, Inc., priority 2018, published 2023)
